Source: patent publication EP4480494A1, “COMPOSITION FOR USE IN TREATMENT OF CANCER, INFLAMMATORY DISEASES, OR OBESITY, AND USE THEREOF” (National University Corporation Tokyo Medical and Dental …, priority 2022, dated 2023)

How the values were obtained:
ZCCHC24 [1] = assay: cells; assay type: cell-based; conditions: Homo sapiens; HiBiT tag-inserted cells, 24 hours; read-out: EC50 concentration for the maximal increase in the ZCCHC24 expression
Protocol: 1 × 10^4 HiBiT tag-inserted cells were seeded in a 96-well plate. […] After 24 hours, the medium was discarded, and 12.5 µL PBS, 12.5 µL Lytic Buffer from the HiBiT kit (Promega), 0.5 µL substrate, and 0.25 µL LgBiT were added. After 10 minutes of reaction at room temperature, luminescence was measured using ARVO X3 (Perkin Elmer).

MDAMB231 = assay: cells; assay type: cell-based; conditions: Homo sapiens, MDA-MB-231; MDAMB231, 48 hours, Cell Titer Glo; read-out: IC50 for maximal cell survival inhibition
Protocol: 2 × 10^3 HiBiT tag-inserted cells were seeded in a 96-well plate. […] After 48 hours, 20 µL of Cell Titer Glo (Promega) was added. After 30 minutes of reaction at 37°C, the […] was measured using ARVO X3 (Perkin Elmer).

ZEB1 = assay: qPCR analysis on JQ1-treated MDAMB231; assay type: cell-based, human; conditions: MDAMB231, 100 nM JQ1, 24 hours
MDAMB231 cells = assay type: cell-based, human; conditions: 100 nM JQ1, 1 µM PD407824 or both, 24 hours, CD44/NRP1 staining
Protocol: 2 × 10^5 MDAMB231 cells were seeded in a 6-well plate. […] Twenty-four hours later, cells were collected, stained with CD44-PE (IM7, Biolegend) and NRP1-APC (FAB3870A, R&D), and subjected to FACS analysis using FACS Calibur (BD).

ZCCHC24 [2] = assay: Compound screening using HiBiT tag knock-in cells (ZCCHC24 expression reporter); assay type: cell-based, human; conditions: LOPAC compounds at 1 µM for 24 hours; HiBiT tag-inserted MDAMB231 reporter cells
Protocol: HiBiT tagged-MDAMB231 cells with were produced using the procedure below. First, crRNA (*14 (SEQ ID NO: 14) in Table 1) (IDT) was resuspended in the Nuclease-Free Duplex buffer (IDT) to a final concentration of 100 µM, and incubated at 95°C for 5 minutes together with the same amount of tracrRNA (IDT). The oligo complex was then slowly cooled down to room temperature and incubated with ALT-R Cas9 Nuclease V3 (61 µM) (Integrated DNA Technologies, IA, USA) for 20 minutes at room temperature to form the Cas9 complex. Next, a single-stranded DNA oligo (*15 (SEQ ID NO: 15) in Table 1) (comprising the HiBiT sequence and a sequence complementary to the sequence of the C-terminal region of ZCCHC24) and Cas9 complex were co-transfected into MDAMB231 cells by an electroporation method using the NEPA21 super electroporator ([…]). After single cell cloning, cells inserted with the HiBiT tag were collected.
The compound screening procedure is as follows. HiBiT tag-inserted cells were plated at 1 × 10^4 cells in a 96-well plate, cultured for 24 hours, and then reacted with a low molecular compound library (LOPAC; Sigma Aldrich) at 1 µM (final concentration) for 24 hours. After the culture medium was discarded, cells were incubated with 12.5 µL PBS, 12.5 µL lysis buffer (Promega), 0.5 µL substrate (Promega), and 0.25 µL LgBiT (Promega) for 10 minutes at room temperature in the dark. The luminescence intensity was measured using ARVO X3 (Perkin Elmer).
As mentioned above, ZCCHC24 is strongly expressed in cancer stem cell-like cells, and maintains the expression of genes important for maintaining cancer stemness by directly binding to the mRNA of these genes. Therefore, in order to clarify the expression induction mechanism of ZCCHC24, labeled reporter cells were created by inserting a HiBiT tag into the C terminus of ZCCHC24, 1280 types of compounds in LOPAC (Sigma Aldrich) were administered to these reporter cells at a concentration of 1 µM for 24 hours, and compound screening was performed (Figure 17A). […]

Structure (SMILES) | EC50 (ZCCHC24 [1]) [nM] | IC50 (MDAMB231) [nM] | expression of ZEB1 (ZEB1) | cancer stem cell-like population (MDAMB231 cells) | Z score (ZCCHC24 expression) (ZCCHC24 [2])
Cc1sc2c(c1C)C(c1ccc(Cl)cc1)=NC(CC(=O)OC(C)(C)C)c1nnc(C)n1-2 (stereo not shown) [JQ1] | ~50 | ~100 | dramatically increased | no decrease | 
COc1cc2c[n+](C)c3c4cc5c(cc4ccc3c2cc1OC)OCO5 [nitidine] |  |  |  |  | up-regulators (compounds with Z score > 3.0 above were defined as up-regulators)
CC[C@@]1(O)C(=O)OCc2c1cc1n(c2=O)Cc2cc3ccccc3nc2-1 [camptothecin] |  |  |  |  | up-regulators (compounds with Z score > 3.0 above were defined as up-regulators)
CC(=O)[C@]1(O)Cc2c(O)c3c(c(O)c2[C@@H](O[C@H]2C[C@H](N)[C@H](O)[C@H](C)O2)C1)C(=O)c1ccccc1C3=O [idarubicin] |  |  |  |  | up-regulators (compounds with Z score > 3.0 above were defined as up-regulators)
